The target in one experiment is T1, FL-USP15 (Homo sapiens, UniProt Q9Y4E8).
T1 sequence (Q9Y4E8 2-952 isoform Q9Y4E8-2): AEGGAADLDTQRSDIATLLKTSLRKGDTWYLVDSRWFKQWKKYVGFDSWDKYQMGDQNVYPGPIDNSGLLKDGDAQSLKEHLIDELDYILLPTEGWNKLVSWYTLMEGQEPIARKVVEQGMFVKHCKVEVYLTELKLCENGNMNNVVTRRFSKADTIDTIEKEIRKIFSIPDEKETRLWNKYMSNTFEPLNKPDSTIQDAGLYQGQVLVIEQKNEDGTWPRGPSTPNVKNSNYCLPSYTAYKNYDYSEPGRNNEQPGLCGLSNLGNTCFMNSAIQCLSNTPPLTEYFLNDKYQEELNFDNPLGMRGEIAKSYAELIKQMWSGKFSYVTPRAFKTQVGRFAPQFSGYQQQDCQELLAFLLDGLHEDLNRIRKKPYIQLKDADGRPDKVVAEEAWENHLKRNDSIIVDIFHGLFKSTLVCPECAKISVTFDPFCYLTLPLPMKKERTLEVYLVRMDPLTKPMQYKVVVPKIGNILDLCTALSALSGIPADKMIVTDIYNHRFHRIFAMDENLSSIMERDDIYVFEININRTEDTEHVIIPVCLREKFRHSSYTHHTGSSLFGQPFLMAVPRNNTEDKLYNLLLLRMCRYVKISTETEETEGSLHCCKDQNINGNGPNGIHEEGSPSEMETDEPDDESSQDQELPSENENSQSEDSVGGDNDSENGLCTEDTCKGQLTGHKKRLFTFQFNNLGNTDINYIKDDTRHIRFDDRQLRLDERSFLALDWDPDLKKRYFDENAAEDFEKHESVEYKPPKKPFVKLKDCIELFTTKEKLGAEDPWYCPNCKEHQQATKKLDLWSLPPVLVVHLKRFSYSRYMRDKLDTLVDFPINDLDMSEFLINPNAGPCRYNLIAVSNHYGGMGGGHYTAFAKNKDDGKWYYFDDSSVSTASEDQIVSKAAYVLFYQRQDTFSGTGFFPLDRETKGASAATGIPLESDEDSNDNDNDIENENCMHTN
Briefly: linear diubiquitin gel shift cleavage assay (SDS-PAGE, ImageJ). It is filed as biochemical. A general note: A gel shift assay detects complexes by their altered migration in electrophoresis.

The target in the next experiment is T2, USP15-D1D2 (Homo sapiens, UniProt Q9Y4E8, DEL469-785).
T2 construct: two copies in the asymmetric unit
Briefly: X-ray crystal structure of complex, […] Å. As to conditions: co-crystal, 0.1 M Na-Hepes pH 7.0, 14% MPD, 20 °C; S1' site near BL2 loop; ligand density in one of two copies. Type of experiment: binding.

Each structure is given as a SMILES string.

With `O=C1c2c(O)ccc(O)c2C(=O)c2c(NCCNCCO)ccc(NCCNCCO)c21` [mitoxantrone, 1,4-dihydroxy-5,8-bis[2-(2-hydroxyethylamino)ethylamino]anthracene-9,10-dione], the IC50 at FL-USP15 was determined as 33 ± 11 µM. At USP15-D1D2, the “X-ray crystal structure of complex, 2.09 Å” value was “This USP15–mitoxantrone complex structure revealed predominantly hydrophobic interactions between mitoxantrone and USP15 residues”.

The IC50 is the concentration needed to halve the response being measured.

The values are drawn from paper PMC6231127, “The structure of the deubiquitinase USP15 reveals a misaligned catalytic triad and an open ubiquitin-binding channel” (The Journal of Biological Chemistry, 2018).
